Test results: US5652353A, “DNAs encoding tumor necrosis factor-α muteins” (priority 1990, dated 1997)

System: human p75-TNF-R versus human p55-TNF-R
Assay: Selectivity factor S from competitive binding to p75-TNF-R and p55-TNF-R
Conditions: based on IC50 p75-TNF-R and IC50 p55-TNF-R (Table F, FIGS. 10A-10E)
Method: The filters were blocked with blocking buffer (50 mM Tris, 140 mM NaCl, 5 mM EDTA, 0.02% NaN3, 1% defatted milk powder) for 1.5 hours at room temperature. […] The filters were washed with blocking buffer (2× for 5 min.) and with H2 O (1× for 5 min.), air dried, and counted in a γ-counter.
After three hours at room temperature the wells were thoroughly washed with PBS and counted in a γ-counter.

Tyr^29 -TNFα: TNF-α mutein with tyrosine substituted at position 29, SEQ ID No: 6
selectivity factor S: 110

Tyr^32 -TNFα: TNF-α mutein with tyrosine substituted at position 32, SEQ ID No: 10
selectivity factor S: 90
